According to ChEMBL document CHEMBL3351466 (Bioorg Med Chem Lett, 2014):

Legend:
[1] = target: T1, Transient receptor potential cation channel subfamily V member 1 (Homo sapiens, UniProt Q8NER1); test: Antagonist activity at human TRPV1 expressed in CHO cells assessed as inhibition of capsaicin-induced increase in intracellular Ca2+ level by FLIPR assay; type: cell-based
Rattus norvegicus [2] = test: Analgesic activity in rat Bennett model for neuropathic pain […]; type: functional
[3] = target: T1, Transient receptor potential cation channel subfamily V member 1; test: Antagonist activity at human TRPV1 expressed in CHO cells assessed as inhibition of heat-induced increase in intracellular Ca2+ level by FLIPR assay; type: cell-based
[4] = target: T1, Transient receptor potential cation channel subfamily V member 1; test: Antagonist activity at human TRPV1 expressed in CHO cells assessed as inhibition of N-arachidonoyl dopamine-induced increase in intracellular Ca2+ level by FLIPR assay; type: cell-based
Mus musculus [5] = test: Inhibition of capsaicin-induced hypothermia in NMRI mouse compound administered orally 15 mins prior challenge measured 30 mins post challenge; type: functional, organism-based
Mus musculus [6] = test: Inhibition of capsaicin-induced hypothermia in NMRI mouse compound at 0.1 mg/kg, po administered 15 mins prior challenge measured 30 mins post challenge; type: functional
Mus musculus [7] = test: Inhibition of capsaicin-induced hypothermia in NMRI mouse compound at 0.3 mg/kg, po administered 15 mins prior challenge measured 30 mins post challenge; type: functional
Rattus norvegicus [8] = test: Analgesic activity in orally dosed rat Bennett model for neuropathic pain; type: functional, organism-based
Rattus norvegicus [9] = test: Analgesic activity in rat Bennett model for neuropathic pain at 1 mg/kg, po; type: functional
Rattus norvegicus [10] = test: Analgesic activity in rat Bennett model for neuropathic pain at 0.1 mg/kg, po; type: functional

T1 sequence (Q8NER1 whole entry): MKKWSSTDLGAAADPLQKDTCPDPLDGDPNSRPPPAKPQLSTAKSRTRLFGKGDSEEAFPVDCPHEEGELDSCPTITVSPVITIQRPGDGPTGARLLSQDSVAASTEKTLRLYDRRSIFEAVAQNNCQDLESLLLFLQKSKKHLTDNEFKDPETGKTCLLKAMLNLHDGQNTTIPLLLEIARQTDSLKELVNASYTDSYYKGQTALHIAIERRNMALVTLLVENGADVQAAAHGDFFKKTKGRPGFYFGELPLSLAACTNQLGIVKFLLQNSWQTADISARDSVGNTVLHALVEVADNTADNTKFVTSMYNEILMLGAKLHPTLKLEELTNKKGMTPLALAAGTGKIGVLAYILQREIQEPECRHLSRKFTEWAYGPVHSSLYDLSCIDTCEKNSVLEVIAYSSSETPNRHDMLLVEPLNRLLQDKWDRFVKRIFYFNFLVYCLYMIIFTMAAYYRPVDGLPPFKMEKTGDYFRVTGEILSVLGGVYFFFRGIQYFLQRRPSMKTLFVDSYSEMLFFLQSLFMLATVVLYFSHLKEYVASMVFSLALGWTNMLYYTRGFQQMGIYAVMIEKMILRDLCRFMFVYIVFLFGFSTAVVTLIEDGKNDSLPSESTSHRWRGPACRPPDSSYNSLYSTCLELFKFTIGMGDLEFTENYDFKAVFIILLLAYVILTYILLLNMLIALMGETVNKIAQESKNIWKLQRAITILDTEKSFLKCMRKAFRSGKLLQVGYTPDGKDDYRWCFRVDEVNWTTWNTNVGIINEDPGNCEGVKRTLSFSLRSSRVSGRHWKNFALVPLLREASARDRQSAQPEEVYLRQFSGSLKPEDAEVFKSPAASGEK

Structure (SMILES): CC(C(=O)NCc1ccc(C(F)(F)F)nc1C1=CCC(C)(C)CC1)c1ccc(NS(C)(=O)=O)c(F)c1 (racemic)
- Ki [1]: 0.2 nM

Structure (SMILES): CC(C(=O)NCc1ccc(C(F)(F)F)nc1C1CC2CCC1C2)c1ccc(NS(C)(=O)=O)c(F)c1 (racemic)
- Ki [1]: 1.5 nM

Structure (SMILES): CC(C(=O)NCc1ccc(C(F)(F)F)nc1C1CCC(C)(C)CC1)c1ccc(NS(C)(=O)=O)c(F)c1 (racemic)
- Ki [1]: 0.4 nM

Structure (SMILES): CC1CC=C(c2nc(C(F)(F)F)ccc2CNC(=O)[C@@H](C)c2ccc(NS(C)(=O)=O)c(F)c2)CC1 (stereo partly drawn)
- Ki [1]: 0.2 nM

Structure (SMILES): CCCc1nc(C(F)(F)F)ccc1CNC(=O)C(C)c1ccc(NS(C)(=O)=O)c(F)c1 (stereo not drawn)
- Ki [1]: 22.7 nM

Structure (SMILES): CCC1CCC(c2nc(C(F)(F)F)ccc2CNC(=O)[C@@H](C)c2ccc(NS(C)(=O)=O)c(F)c2)CC1 (stereo partly drawn)
- Ki [1]: 0.2 nM

Structure (SMILES): CC(C(=O)NCc1ccc(C(F)(F)F)nc1C1CCC(F)(F)CC1)c1ccc(NS(C)(=O)=O)c(F)c1 (stereo not drawn)
- Ki [1]: 1.5 nM

Structure (SMILES): C[C@H](C(=O)NCc1ccc(C(F)(F)F)nc1C1CCC(C)(C)CC1)c1ccc(NS(C)(=O)=O)c(F)c1
- Ki [1]: 0.3 nM

Structure (SMILES): C[C@H](C(=O)NCc1ccc(C(F)(F)F)nc1C1CCCCC1)c1ccc(NS(C)(=O)=O)c(F)c1
- Ki [1]: 0.3 nM

Structure (SMILES): CC(C(=O)NCc1ccc(C(F)(F)F)nc1C1CCC(C(C)(C)C)CC1)c1ccc(NS(C)(=O)=O)c(F)c1 (stereo not drawn)
- Ki [1]: 0.3 nM

Structure (SMILES): CC1C=C(c2nc(C(F)(F)F)ccc2CNC(=O)C(C)c2ccc(NS(C)(=O)=O)c(F)c2)CCC1 (stereo not drawn)
- Ki [1]: 0.2 nM

Structure (SMILES): CC(C)C[C@H](CN)CC(=O)O [PREGABALIN]
- ED50 (Rattus norvegicus [2]): 42.2 mg/kg

Structure (SMILES): C[C@H](C(=O)NCc1ccc(C(F)(F)F)nc1C1=CCC(C)(C)CC1)c1ccc(NS(C)(=O)=O)c(F)c1
- Ki [1]: 0.1 nM

Structure (SMILES): C[C@H](C(=O)NCc1ccc(C(F)(F)F)nc1C1CC2CCC1C2)c1ccc(NS(C)(=O)=O)c(F)c1 (stereo partly drawn)
- Ki [1]: 0.8 nM

Structure (SMILES): CC1CCC(c2nc(C(F)(F)F)ccc2CNC(=O)C(C)c2ccc(NS(C)(=O)=O)c(F)c2)CC1 (stereo not drawn)
- Ki [1]: 0.4 nM

Structure (SMILES): CC(C(=O)NCc1ccc(C(F)(F)F)nc1C1=CCC(C(C)(C)C)CC1)c1ccc(NS(C)(=O)=O)c(F)c1 (racemic)
- Ki [1]: 0.2 nM

Structure (SMILES): CC(C(=O)NCc1ccc(C(F)(F)F)nc1[C@H]1CC[C@@H](C(C)(C)C)CC1)c1ccc(NS(C)(=O)=O)c(F)c1 (stereo partly drawn)
- Ki [1]: 1.3 nM

Structure (SMILES): CC(C(=O)NCc1ccc(C(F)(F)F)nc1[C@H]1CC[C@H](C(C)(C)C)CC1)c1ccc(NS(C)(=O)=O)c(F)c1 (stereo partly drawn)
- Ki [1]: 0.3 nM

Structure (SMILES): CC(C(=O)NCc1ccc(C(F)(F)F)nc1C1CCCCC1)c1ccc(NS(C)(=O)=O)c(F)c1 (stereo not drawn)
- IC50 [3]: 14.1 nM
- Ki [4]: 0.2 nM
- inhibition (Mus musculus [5]): Dose-dependent effect
- inhibition in vivo at 0.1 mg/kg (Mus musculus [6]): 24%
- inhibition in vivo at 0.3 mg/kg (Mus musculus [7]): 78%
- Activity (Rattus norvegicus [8]): Dose-dependent effect
- %max (Rattus norvegicus [9]): 53%
- %max (Rattus norvegicus [10]): 25%

Structure (SMILES): CCC1CCC(c2nc(C(F)(F)F)ccc2CNC(=O)C(C)c2ccc(NS(C)(=O)=O)c(F)c2)CC1 (racemic)
- Ki [1]: 0.3 nM

Structure (SMILES): C[C@H](C(=O)NCc1ccc(C(F)(F)F)nc1C1=CCC(C(C)(C)C)CC1)c1ccc(NS(C)(=O)=O)c(F)c1 (stereo partly drawn)
- Ki [1]: 0.1 nM
